Experimental data published in patent publication US9295732B2, “Conjugated TLR7 and/or TLR8 and TLR2 polycationic agonists” (CAYLA, priority 2013, dated 2016).

Legend:
[1] = target: T1, human TLR7 (Homo sapiens, UniProt Q9NYK1); experiment: HEK-Blue hTLR7 NF-κB/AP-1 SEAP reporter assay; type: cell-based; conditions: HEK-Blue hTLR7 cells, 10 μg/mL to 10 pg/ml, 24 hours, OD at 655 nm, FIG. 1
T1 construct: host or cells: HEK293 (HEK-Blue™ hTLR7)
T1 sequence (Q9NYK1 27-1049): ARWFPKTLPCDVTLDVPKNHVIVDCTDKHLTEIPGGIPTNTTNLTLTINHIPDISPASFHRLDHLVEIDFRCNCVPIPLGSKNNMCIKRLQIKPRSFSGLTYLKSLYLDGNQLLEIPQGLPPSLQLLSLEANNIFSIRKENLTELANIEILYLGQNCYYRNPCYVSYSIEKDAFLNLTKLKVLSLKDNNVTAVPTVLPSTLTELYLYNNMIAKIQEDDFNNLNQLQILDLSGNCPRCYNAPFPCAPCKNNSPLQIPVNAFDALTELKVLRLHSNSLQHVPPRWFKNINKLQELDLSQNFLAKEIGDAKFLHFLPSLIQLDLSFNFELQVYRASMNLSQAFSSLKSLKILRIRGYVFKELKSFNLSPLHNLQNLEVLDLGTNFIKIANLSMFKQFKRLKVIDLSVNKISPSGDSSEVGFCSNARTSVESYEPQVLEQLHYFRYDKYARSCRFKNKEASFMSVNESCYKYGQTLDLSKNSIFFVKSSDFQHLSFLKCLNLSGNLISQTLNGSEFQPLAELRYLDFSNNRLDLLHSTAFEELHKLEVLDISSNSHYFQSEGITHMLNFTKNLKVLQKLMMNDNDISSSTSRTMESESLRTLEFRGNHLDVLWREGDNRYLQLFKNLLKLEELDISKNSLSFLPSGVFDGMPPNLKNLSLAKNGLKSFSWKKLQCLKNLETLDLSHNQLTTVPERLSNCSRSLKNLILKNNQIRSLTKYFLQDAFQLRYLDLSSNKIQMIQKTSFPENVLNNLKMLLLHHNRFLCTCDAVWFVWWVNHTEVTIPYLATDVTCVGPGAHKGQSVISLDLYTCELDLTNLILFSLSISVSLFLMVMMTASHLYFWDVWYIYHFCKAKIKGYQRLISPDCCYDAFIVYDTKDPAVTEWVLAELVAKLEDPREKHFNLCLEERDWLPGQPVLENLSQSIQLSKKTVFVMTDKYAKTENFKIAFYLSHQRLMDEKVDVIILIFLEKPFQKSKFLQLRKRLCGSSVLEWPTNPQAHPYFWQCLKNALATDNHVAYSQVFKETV
How it was run: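 HEK293 cells stably expressing the given TLR, or RAW 264.7-derived cells (50,000 or 100,000 cells/well respectively), carry an NF-κB/AP-1-inducible SEAP reporter. Conjugated TLR7-TLR2 agonists at final 10 μg/mL to 10 pg/ml, 24 h at 37° C. SEAP read colorimetrically as OD at 655 nm in detection medium.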

[2] = system: ISG54 promoter activity in B16-ISG54 reporter cells; experiment: IFN response assay, B16-ISG54 luciferase reporter cells; type: cell-based, mouse; conditions: in complexes with pDNA 3:24 (w:w), overnight, FIG. 6B
Experimental: The effect of the pDNA:TLR7-TLR2 polyamine molecules complexes on inducing an interferon response was examined. pDNA:TLR7-TLR2 polyamine molecules mixtures (pDNA:TLR7-TLR2 polyamine molecules ratio 3:24, w:w) in serum-free medium or 5% glucose were prepared as described above and added to IFN reporter cells. Luciferase reporter cell lines were used to assay interferon response. A plasmid containing an interferon-inducible luciferase reporter gene was introduced into mouse RAW 264.7 macrophages and mouse B16 melanoma cells, giving rise to the RAW-ISG54 and B16-ISG54 reporter cell lines respectively. Expression of the luciferase reporter gene by the plasmid is under the control of an interferon-inducible promoter (I-ISG54) comprising five interferon-stimulated response elements (ISRE) and the minimal promoter of the human ISG-54K (Interferon Stimulation of a Gene encoding a 54 kDa protein) gene. The ISG-54K gene is induced by interferon regulatory factor 3 (IRF3), which has a key involvement in […] responses (Grandvaux et al. 2002) and the minimal promoter of the human ISG-54K gene contains two ISRE sites and fully inducible by type I interferons (IFN-α and IFN-β) and interferon regulatory factors (IRFs) (Wathelet et al. 1988; Grandvaux et al. 2002).
The RAW-ISG54 and B16-ISG54 reporter cell lines were seeded onto 96 well microtiter plates at 100,000 cells per well and 75,000 cells per well respectively. Cells were cultured in DMEM supplemented with 10% (v/v) heat inactivated fetal bovine serum (30 min at 56° C.), 4.5 g/I glucose, 2 mM L-glutamine, 50 U/ml penicillin, 50 μg/ml streptomycin, 100 μg/ml Normocin™ (InvivoGen) together with pDNA:TLR7-TLR2 polyamine complexes at 37° C. overnight. pDNA:TLR7-TLR2 polyamine molecules complexes were prepared as described above prior to adding to the IFN reporter cells. The induced luciferase expression was assessed in the reporter cell lines using a coelenterazine-base luminescence assay reagent, the Quanti-Luc™ (InvivoGen). Secreted luciferase activity was determined by bioluminescence quantification of the cell culture media using a microplate luminometer (FLUOstar OPTIMA from BMG Labtech).

ability to activate hTLR7 [1] | Compound | ability to induce an IFN response in B16-ISG54 reporter cells [2]
activate hTLR7 | CCCCCCCCCCCCCCCC(=O)OCC(CSC[C@H](N)C(=O)N[C@@H](COC(=O)c1ccc(Cn2c(O)nc3c(N)nc(NCCCC)nc32)cc1)C(=O)NCCCNCCCCNCCCN)OC(=O)CCCCCCCCCCCCCCC (stereo partly drawn) [CL514, (6R,9S)-6,23-diamino-9-((4-((6-amino-2-(butylamino)-8-hydroxy-9H-purin-9-yl)methyl)benzoyloxy)methyl)-7,10-dioxo-4-thia-8,11,15,20-tetraazatricosane-1,2-diyl dipalmitate] | induce an IFN response in B16-ISG54 reporter cells
activate hTLR7 | CCCCCCCCCCCCCCCC(=O)OCC(CSC[C@H](N)C(=O)N[C@@H](CCC(=O)NCCCNCCCCNCCCN)C(=O)Nc1ccc(Cn2c(O)nc3c(N)nc(NCCCC)nc32)cc1)OC(=O)CCCCCCCCCCCCCCC (stereo partly drawn) [CL527, (6R,9S)-6,25-diamino-9-(4-((6-amino-2-(butylamino)-8-hydroxy-9H-purin-9-yl)methyl)phenylcarbamoyl)-7,12-dioxo-4-thia-8,13,17,22-tetraazapentacosane-1,2-diyl dipalmitate] | induce an IFN response in B16-ISG54 reporter cells
activate hTLR7 | CCCCCCCCCCCCCCCC(=O)OCC(CSC[C@H](N)C(=O)NCCCNCCCCNCCCNC(=O)CNC(=O)c1ccc(Cn2c(O)nc3c(N)nc(NCCCC)nc32)cc1)OC(=O)CCCCCCCCCCCCCCC (stereo partly drawn) [CL553, (20R)-20-amino-1-(4-((6-amino-2-(butylamino)-8-hydroxy-9H-purin-9-yl)methyl)phenyl)-1,4,19-trioxo-22-thia-2,5,9,14,18-pentaazapentacosane-24,25-diyl dipalmitate] | induce an IFN response in B16-ISG54 reporter cells

Compound | ability to activate hTLR7 [1] | ability to induce an IFN response in B16-ISG54 reporter cells [2]
CCCCCCCCCCCCCCCC(=O)N[C@@H](CSCC(COC(=O)CCCCCCCCCCCCCCC)OC(=O)CCCCCCCCCCCCCCC)C(=O)N[C@@H](CO)C(=O)N[C@@H](CCCCN)C(=O)N[C@@H](CCCCN)C(=O)N[C@@H](CCCCN)C(=O)N[C@@H](CCCCN)C(=O)Nc1ccc(Cn2c(O)nc3c(N)nc(NCCCC)nc32)cc1 (stereo partly drawn) [CL534, ((6R,9S,12S,15S,18S,21S)-25-amino-21-(4-((6-amino-2-(butylamino)-8-hydroxy-9H-purin-9-yl)methyl)phenylcarbamoyl)-12,15,18-tris(4-aminobutyl)-9-(hydroxylmethyl)-7,10,13,16,19-pentaoxo-6-palmitamido-4-thia-8,11,14,17,20-pentaazapentacosane-1,2-diyl dipalmitate] | activate hTLR7 | 
(6S,9S,12S,15S,18S,21R)-6,25-diamino-21-(4-((6-amino-2-(butylamino)-8-hydroxy-9H-purin-9-yl)methyl)phenylcarbamoyl)-12,15,18-tris(4-aminobutyl)-9-(hydroxyl methyl)-7,10,13,16,19-pentaoxo-4-thia-8,11,14,17,20-pentaazapentacosane-1,2-diyl dipalmitate [CL413] | activate hTLR7 | induce an IFN response in B16-ISG54 reporter cells
